Reference: the NIST ThermoML archive (doi:10.1021/je100476h)
Numbers after ± are expanded uncertainties.

Assay: mn = molality of the nth substance listed, in mol/kg
Settings: 101 kPa, Liquid

For `NCC(=O)O` [2-aminoacetic acid] + O, the mass density (288.15 K, m1 = 0.1429) was 1003.76 ± 0.26 kg/m3, the mass density (288.15 K, m1 = 0.2709) was 1007.85 ± 0.27 kg/m3 and the mass density (288.15 K, m1 = 0.3812) was 1011.33 ± 0.28 kg/m3. It also gave a mass density (288.15 K, m1 = 0.4102) of 1012.23 ± 0.28 kg/m3, a mass density (288.15 K, m1 = 0.4801) of 1014.4 ± 0.29 kg/m3 and a mass density (288.15 K, m1 = 0.5732) of 1017.27 ± 0.3 kg/m3. For the same compound, the mass density (298.15 K, m1 = 0.1429) was 1001.56 ± 0.25 kg/m3, the mass density (298.15 K, m1 = 0.2709) was 1005.54 ± 0.26 kg/m3 and the mass density (298.15 K, m1 = 0.3812) was 1008.93 ± 0.27 kg/m3. It also gave a mass density (298.15 K, m1 = 0.4102) of 1009.8 ± 0.28 kg/m3, a mass density (298.15 K, m1 = 0.4801) of 1011.92 ± 0.28 kg/m3 and a mass density (298.15 K, m1 = 0.5732) of 1014.71 ± 0.29 kg/m3. The mass density (308.15 K, m1 = 0.1429) was 998.477 ± 0.25 kg/m3, the mass density (308.15 K, m1 = 0.2709) was 1002.4 ± 0.25 kg/m3 and the mass density (308.15 K, m1 = 0.3812) was 1005.73 ± 0.26 kg/m3. It also gave a mass density (308.15 K, m1 = 0.4102) of 1006.59 ± 0.27 kg/m3, a mass density (308.15 K, m1 = 0.4801) of 1008.66 ± 0.27 kg/m3 and a mass density (308.15 K, m1 = 0.5732) of 1011.41 ± 0.28 kg/m3. It also gave a mass density (318.15 K, m1 = 0.1429) of 994.636 ± 0.26 kg/m3, a mass density (318.15 K, m1 = 0.2709) of 998.503 ± 0.25 kg/m3 and a mass density (318.15 K, m1 = 0.3812) of 1001.79 ± 0.25 kg/m3. It also gave a mass density (318.15 K, m1 = 0.4102) of 1002.63 ± 0.25 kg/m3, a mass density (318.15 K, m1 = 0.4801) of 1004.67 ± 0.26 kg/m3 and a mass density (318.15 K, m1 = 0.5732) of 1007.37 ± 0.27 kg/m3.
In the case of `NCCCC(=O)O` [4-aminobutanoic acid] + O, the mass density (288.15 K, m1 = 0.04607) is reported as 1000.54 ± 0.25 kg/m3, the mass density (288.15 K, m1 = 0.09549) is reported as 1002.05 ± 0.25 kg/m3 and the mass density (288.15 K, m1 = 0.1155) is reported as 1002.65 ± 0.25 kg/m3. The mass density (288.15 K, m1 = 0.1652) was 1004.13 ± 0.26 kg/m3, the mass density (288.15 K, m1 = 0.1882) was 1004.83 ± 0.26 kg/m3 and the mass density (288.15 K, m1 = 0.2277) was 1005.99 ± 0.26 kg/m3. It also gave a mass density (298.15 K, m1 = 0.04607) of 998.428 ± 0.25 kg/m3, a mass density (298.15 K, m1 = 0.09549) of 999.894 ± 0.24 kg/m3 and a mass density (298.15 K, m1 = 0.1155) of 1000.48 ± 0.25 kg/m3. The mass density (298.15 K, m1 = 0.1652) was 1001.93 ± 0.25 kg/m3, the mass density (298.15 K, m1 = 0.1882) was 1002.61 ± 0.25 kg/m3 and the mass density (298.15 K, m1 = 0.2277) was 1003.73 ± 0.26 kg/m3. It also gave a mass density (308.15 K, m1 = 0.04607) of 995.406 ± 0.26 kg/m3, a mass density (308.15 K, m1 = 0.09549) of 996.864 ± 0.25 kg/m3 and a mass density (308.15 K, m1 = 0.1155) of 997.447 ± 0.25 kg/m3. The mass density (308.15 K, m1 = 0.1652) was 998.889 ± 0.25 kg/m3, the mass density (308.15 K, m1 = 0.1882) was 999.542 ± 0.25 kg/m3 and the mass density (308.15 K, m1 = 0.2277) was 1000.66 ± 0.25 kg/m3. The mass density (318.15 K, m1 = 0.04607) was 991.616 ± 0.27 kg/m3, the mass density (318.15 K, m1 = 0.09549) was 993.071 ± 0.27 kg/m3 and the mass density (318.15 K, m1 = 0.1155) was 993.654 ± 0.26 kg/m3. It also gave a mass density (318.15 K, m1 = 0.1652) of 995.086 ± 0.26 kg/m3, a mass density (318.15 K, m1 = 0.1882) of 995.747 ± 0.26 kg/m3 and a mass density (318.15 K, m1 = 0.2277) of 996.868 ± 0.26 kg/m3.
For `NCCCCCC(=O)O` [6-aminohexanoic acid] + O, the mass density (288.15 K, m1 = 0.05814) was 1000.76 ± 0.25 kg/m3, the mass density (288.15 K, m1 = 0.09073) was 1001.66 ± 0.25 kg/m3 and the mass density (288.15 K, m1 = 0.1798) was 1004.09 ± 0.26 kg/m3. For the same compound, the mass density (288.15 K, m1 = 0.1945) was 1004.48 ± 0.26 kg/m3, the mass density (288.15 K, m1 = 0.267) was 1006.41 ± 0.27 kg/m3 and the mass density (288.15 K, m1 = 0.3522) was 1008.64 ± 0.27 kg/m3. The mass density (298.15 K, m1 = 0.05814) was 998.622 ± 0.25 kg/m3, the mass density (298.15 K, m1 = 0.09073) was 999.493 ± 0.25 kg/m3 and the mass density (298.15 K, m1 = 0.1798) was 1001.84 ± 0.25 kg/m3. The mass density (298.15 K, m1 = 0.1945) was 1002.22 ± 0.25 kg/m3, the mass density (298.15 K, m1 = 0.267) was 1004.08 ± 0.26 kg/m3 and the mass density (298.15 K, m1 = 0.3522) was 1006.23 ± 0.27 kg/m3. It also gave a mass density (308.15 K, m1 = 0.05814) of 995.592 ± 0.26 kg/m3, a mass density (308.15 K, m1 = 0.09073) of 996.454 ± 0.26 kg/m3 and a mass density (308.15 K, m1 = 0.1798) of 998.775 ± 0.25 kg/m3. For the same compound, the mass density (308.15 K, m1 = 0.1945) was 999.147 ± 0.25 kg/m3, the mass density (308.15 K, m1 = 0.267) was 1000.99 ± 0.25 kg/m3 and the mass density (308.15 K, m1 = 0.3522) was 1003.12 ± 0.26 kg/m3. The mass density (318.15 K, m1 = 0.05814) was 991.793 ± 0.27 kg/m3, the mass density (318.15 K, m1 = 0.09073) was 992.649 ± 0.27 kg/m3 and the mass density (318.15 K, m1 = 0.1798) was 994.956 ± 0.26 kg/m3. It also gave a mass density (318.15 K, m1 = 0.1945) of 995.328 ± 0.26 kg/m3, a mass density (318.15 K, m1 = 0.267) of 997.158 ± 0.26 kg/m3 and a mass density (318.15 K, m1 = 0.3522) of 999.27 ± 0.25 kg/m3.
Compound `CC(=O)[O-].CC(=O)[O-].[Mg+2]` [magnesium acetate] + O has a mass density (288.15 K, m1 = 0.1) of 1007.01 ± 0.28 kg/m3, a mass density (288.15 K, m1 = 0.25) of 1018.2 ± 0.31 kg/m3 and a mass density (288.15 K, m1 = 0.5) of 1035.44 ± 0.36 kg/m3. It also gave a mass density (288.15 K, m1 = 1) of 1064.68 ± 0.46 kg/m3, a mass density (298.15 K, m1 = 0.1) of 1004.9 ± 0.27 kg/m3 and a mass density (298.15 K, m1 = 0.25) of 1016.05 ± 0.3 kg/m3. The mass density (298.15 K, m1 = 0.5) was 1033.15 ± 0.35 kg/m3, the mass density (298.15 K, m1 = 1) was 1061.74 ± 0.45 kg/m3 and the mass density (308.15 K, m1 = 0.1) was 1001.84 ± 0.26 kg/m3. For the same compound, the mass density (308.15 K, m1 = 0.25) was 1012.89 ± 0.29 kg/m3, the mass density (308.15 K, m1 = 0.5) was 1030.05 ± 0.34 kg/m3 and the mass density (308.15 K, m1 = 1) was 1059.65 ± 0.44 kg/m3. For the same compound, the mass density (318.15 K, m1 = 0.1) was 998.062 ± 0.26 kg/m3, the mass density (318.15 K, m1 = 0.25) was 1009.15 ± 0.28 kg/m3 and the mass density (318.15 K, m1 = 0.5) was 1026.24 ± 0.33 kg/m3. For the same compound, the mass density (318.15 K, m1 = 1) was 1055.19 ± 0.43 kg/m3.
Compound `CC(=O)[O-].[Na+]` [sodium ethanoate] + O has a mass density (288.15 K, m1 = 0.1) of 1003.46 ± 0.26 kg/m3, a mass density (288.15 K, m1 = 0.25) of 1009.6 ± 0.28 kg/m3 and a mass density (288.15 K, m1 = 0.5) of 1019.38 ± 0.31 kg/m3. It also gave a mass density (288.15 K, m1 = 1) of 1037.22 ± 0.37 kg/m3, a mass density (298.15 K, m1 = 0.1) of 1001.31 ± 0.25 kg/m3 and a mass density (298.15 K, m1 = 0.25) of 1007.39 ± 0.27 kg/m3. For the same compound, the mass density (298.15 K, m1 = 0.5) was 1017.07 ± 0.3 kg/m3, the mass density (298.15 K, m1 = 1) was 1034.76 ± 0.36 kg/m3 and the mass density (308.15 K, m1 = 0.1) was 998.243 ± 0.25 kg/m3. It also gave a mass density (308.15 K, m1 = 0.25) of 1004.27 ± 0.26 kg/m3, a mass density (308.15 K, m1 = 0.5) of 1013.89 ± 0.29 kg/m3 and a mass density (308.15 K, m1 = 1) of 1031.54 ± 0.35 kg/m3. For the same compound, the mass density (318.15 K, m1 = 0.1) was 994.384 ± 0.26 kg/m3, the mass density (318.15 K, m1 = 0.25) was 1000.35 ± 0.25 kg/m3 and the mass density (318.15 K, m1 = 0.5) was 1009.85 ± 0.28 kg/m3. For the same compound, the mass density (318.15 K, m1 = 1) was 1027.23 ± 0.34 kg/m3.
`O` [water] + CC(=O)[O-].[Na+] showed a mass density (308.15 K, m2 = 0) of 994.063 ± 0.27 kg/m3.
